Experimental data reported in patent US20240207318A1, “CHIMERIC COSTIMULATORY RECEPTORS, CHEMOKINE RECEPTORS, AND THE USE OF SAME IN CELLULAR IMMUNOTHERAPIES” (Iovance Biotherapeutics, Inc., priority 2021, published 2024).
“Also recorded” adds a separate entry of the source.

How the values were obtained:
TILs [1] = assay: Cytokine expression of drug-treated TILs after overnight anti-CD3/CD28 bead stimulation; assay type: cell-based, human
TILs [2] = assay: Expansion and viability of TILs treated with drug during ex vivo 22-day expansion; assay type: cell-based, human; conditions: ipatasertib 0.3 or 1 μM, pre-REP and REP or REP only, relative to controls
Method: Patient tumors from different indications were received, fragmented, and subjected to an expansion protocol for TIL manufacturing. Different doses (0.3 μM and 1 μM) of the pan-AKT inhibitor ipatasertib were added to the culture during ex vivo expansion. The expansion potential, as well as the phenotypic and functional characteristics were evaluated on the final TIL product. Eight tumors, including tumors from melanoma, NSCLC, head and neck cancer, ovarian cancer, and breast cancer, were used in combination with the Gen 2 process.
Expansion, viability and T cell distribution in control and AKT inhibitor-treated TILs are shown. TILs were left untreated or treated with increasing concentrations of the pan-AKT inhibitor ipatasertib. Treatment was added either during the pre-REP and REP (blue bars) or during the REP stage only (purple bars). Fold expansion and viability of TIL at the end of the 22-day expansion process are shown. Frequency of CD8^+, CD4^+ and CD4^+ (Foxp3^+) cells after the expansion process on cryopreserved cells are also shown.
In this example, the use of decitabine, a DNA hypomethylation agent, in culture as an epigenetic modifier of TIL products was explored. […] Patient tumors (N=8) from different tumor types (non-small cell lung, head and neck, ovarian, and breast cancers) were obtained from donors, fragmented, and subjected to a 22-day expansion protocol for TIL generation. Different doses (10 nM, 30 nM, and 100 nM) of decitabine were added to the culture during ex vivo expansion either during the pre-REP and REP stages or during REP only. The expansion potential as well as the phenotypic and functional characteristics of TILs were evaluated in the final TIL product.
TILs were left untreated (CTRL, gray bars) or treated with increasing concentrations of decitabine. Treatment was added either during the REP stage only (blue bars) or during both pre-REP and REP (green bars).

TILs [3] = assay: Flow cytometry phenotype of drug-treated TILs (T-cell subsets, surface markers, transcription factors); assay type: cell-based, human
PD-L1 = target: T1, PD-L1 (human, UniProt Q9NZQ7 19-290, limits assumed); assay: characterization of the anti-PD-L1 antibody clone; EC50 assay method not given
T1 construct: also called hPD-L1; CD274
T1 sequence (Q9NZQ7 19-290 limits assumed): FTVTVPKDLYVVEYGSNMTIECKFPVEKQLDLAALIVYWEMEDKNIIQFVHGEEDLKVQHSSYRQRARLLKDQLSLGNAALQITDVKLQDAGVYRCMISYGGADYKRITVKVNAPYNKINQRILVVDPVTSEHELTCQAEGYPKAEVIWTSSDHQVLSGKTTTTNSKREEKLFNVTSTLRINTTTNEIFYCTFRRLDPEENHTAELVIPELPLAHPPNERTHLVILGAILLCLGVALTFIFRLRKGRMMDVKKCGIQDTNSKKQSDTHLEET

[4] = AKT inhibition during expansion

| Molecule | cytokine output following stimulation (TILs [1]; 1 μM ipatasertib at pre-REP and REP, anti-CD3/CD28 beads 1:5 overnight) | frequency of IFNγ+ TNFα+ CD8+ T cells (TILs [1]; AKT inhibitor treatment) | TIL expansion (fold expansion) (TILs [2]) | TIL viability (TILs [2]) | TIL expansion (fold expansion) (TILs [2]; listed as AKT inhibitor) | TIL viability (TILs [2]; listed as AKT inhibitor) | IL-7R and CXCR3 expression on CD8+ TILs (TILs [3]; [4]) | frequency of CD8+ TEMRA cells (TILs [3]; [4]) | population of less differentiated CD39-CD69- cells (TILs [3]; AKT inhibitor during expansion, relative to controls) | TOX expression following stimulation (TILs [3]; AKT inhibitor-treated TILs) | expression of CD38 and transcription factors T-bet and TOX (TILs [3]; CD39-CD69- cells, AKT inhibitor 1 μM) | T cell ratios (CD8+, CD4+, CD4+ Foxp3+) (TILs [3]; ipatasertib-treated TILs after expansion) | EC50 (PD-L1) [nM] |
| --- | --- | --- | --- | --- | --- | --- | --- | --- | --- | --- | --- | --- | --- |
| CC(C)NC[C@@H](C(=O)N1CCN(c2ncnc3c2[C@H](C)C[C@H]3O)CC1)c1ccc(Cl)cc1 [ipatasertib] | higher cytokine output | increase | maintains | maintains | equivalent | equivalent | increase | increase | increases; also recorded: doubled | lower TOX expression | reduced expression | without affecting T cell ratios |  |
| anti-PD-L1 antibody clone 38A1-IgG4-HA (antibody) EVQLVESGGGLVQPGGSLRLSCAASGFTFSNYAMSWVRQAPGKGLEWVSTISGSGGTTYYADSVKGRFTISRDNSKNTLYLQMNSLRVEDTAVYYCAKDWFRSSSPDAFDIWGQGTTVTVSAGGGGSGGGGSGGGGSGAPSYVLTQPPSVSVAPGQTARITCGGNNIGRKIVHWYQQRPGQAPVLVIYYDTDRPAGIPERFSGSNSGNMATLTISTVGAGDEADYYCQVWDTGSDHVVFGGGTKLTVL |  |  |  |  |  |  |  |  |  |  |  |  | 0.404 |
| anti-PD-L1 antibody clone 19H9-IgG4-Flag (antibody) QVQLQESGGGLVKPGGSLRLSCAASGFTFSSYSMNWVRQAPGKGLEWVSGINTAGDTHYPESVKGRFTISRDNARNSLNLQMNSLRAEDTAVYYCVRERVEREYSGYDAFDIWGQGTTVTVSAGGGGSGGGGSGGGGSGAPNFMLTQPHSVSESLGKTVTISCTGSSGSIARKFVQWYQQRPGSSPTTVIYENNQRPSGVSDRFSGSIGSSSNSASLTISGLKTEDEADYYCQSYDSSNVVFGGGTKVTVL |  |  |  |  |  |  |  |  |  |  |  |  | 0.125 |
